The results in this text go back to patent US9765039B2, “Biaryl derivatives as bromodomain inhibitors” (Zenith Epigenetics Ltd., priority 2012, dated 2017).

One data set deals with T1, Brd4 bromodomain 1 (Homo sapiens, UniProt O60885).
T1 construct: made in house; host or cells: E. coli BL21(DE3)
Nature of the data set: Inhibition of tetra-acetylated histone H4 binding to BET bromodomains (TR-FRET). Details: key: Active: Compounds with an IC50 value less than 30 μM were deemed to be active.; Not Active: Compounds with an IC50 value less than 30 μM were deemed to be active. The conditions noted are these: first bromodomain of Brd4, tetra-acetylated histone H4 peptide. The method, boiled down:
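TR-FRET with N-terminally His-tagged bromodomains (200 nM, E. coli-expressed, Ni affinity and SEC-purified) and biotinylated tetra-acetylated histone H4 peptide (25–50 nM), detected with Eu-cryptate streptavidin and XL665 anti-His antibody. Buffer 30 mM HEPES pH 7.4, 320 mM KF, 0.08% BSA, 0.2% DMSO; 2 h RT. IC50 from decrease in 665/620 nm ratio.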
(In general: In TR-FRET formats the signal depends on donor and acceptor labels being close together.)

In the next data set the test system is c-myc. Nature of the data set: Inhibition of c-myc expression in cancer cell lines (mRNA, real-time PCR). It counts as cell-based. Details: key: Active: Compounds with an IC50 value less than 30 μM were deemed to be active. The settings on record: Human AML MV4-11 cells, 3 hours. The method, boiled down:
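MV4-11 cells (2.5×10^4) exposed to compound or 0.1% DMSO for 3 h at 37° C, then lysed for mRNA isolation. c-myc and cyclophilin cDNAs co-amplified by duplex RT real-time PCR. IC50 from dose-response curve.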

In another data set the test system is Human AML MV-4-11 cells. The experiment in a line: Inhibition of cell proliferation in cancer cell lines (CellTiter Aqueous One). The data set is classed as cell-based. Details: key: Active: Compounds with an IC50 value less than 30 μM were deemed to be active.; Not Active: Compounds with an IC50 value less than 30 μM were deemed to be active. The conditions noted are these: 72 hours. The procedure, abridged: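 Exponentially growing MV-4-11 cells were treated immediately with two-fold compound dilutions from 30 µM to 0.2 µM in triplicate for 72 h at 37 °C. Viability was read by MTS (CellTiter Aqueous One) absorbance at 490 nm after 3-4 h; % proliferation vs DMSO gave IC50.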

In another data set the test system is hIL-6 mRNA. The experiment in a line: Inhibition of hIL-6 mRNA transcription in LPS-stimulated U937 macrophages. It counts as cell-based, human. Details: key: Active: Compounds with an IC50 value less than 30 μM are deemed to be active. The conditions noted are these: U937 differentiated into macrophages, 1 h pretreatment, lipopolysaccharide 3 h. The procedure, abridged: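 U937 cells differentiated 3 days with 60 ng/mL PMA, pretreated 1 h with compound, then stimulated with […] E. coli LPS for 3 h at 37° C. hIL-6 mRNA quantified by one-step real-time RT-PCR, Ct normalised to internal control and expressed as fold induction relative to control.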

A further data set relates to hApoA-1 mRNA. The experiment in a line: Up-regulation of hApoA-1 mRNA transcription in Huh7 cells. It counts as cell-based, human. Also on record: key: Active: Compounds with an EC170 value less than 30 μM are deemed to be active.; Not Active: Compounds with an EC170 value less than 30 μM are deemed to be active. The settings on record: 48 hrs treatment, ApoA-I mRNA. As to the method:
In this example, ApoA-I mRNA in tissue culture cells was quantitated to measure the transcriptional up-regulation of ApoA-I when treated with a compound of the present disclosure.
Huh7 cells ([…] per well) were plated in a 96-well plate using 100 μL DMEM per well, (Gibco DMEM supplemented with penicillin/streptomycin and 10% FBS), 24 h before the addition of the compound of interest. After 48 hrs treatment, the spent media was removed from the Huh-7 cells and placed on ice (for immediate use) or at −80° C. (for future use) with the “LDH cytotoxicity assay Kit II” from Abcam. The cells remaining in the plate were rinsed with 100 μL PBS.
Then 85 μL of cell lysis solution was added to each well and incubated for 5-10 minutes at room temperature, to allow for complete cell lysis and detachment. mRNA was then prepared using the “mRNA Catcher PLUS plate” from Life Technologies, according to the protocol supplied. After the last wash, as much wash buffer as possible was aspirated without allowing the wells to dry. Elution Buffer (E3, 80 μL) was then added to each well. mRNA was then eluted by incubating the mRNA Catcher PLUS plate with Elution Buffer for 5 minutes at 68° C., and then 1 minute at 4° C. Catcher plates with mRNA eluted were kept on ice for use or stored at −80° C.
The eluted mRNA isolated was then used in a one-step real-time PCR reaction, using components of the Ultra Sense Kit together with Life Technologies primer-probe mixes. Real-time PCR data was analyzed, using the Ct values, to determine the fold induction of each unknown sample, relative to the control (that is, relative to the control for each independent DMSO concentration).
Compounds with an EC170 value less than 30 μM are deemed to be active.

In a further data set the test system is arthritic rats. Nature of the data set: In vivo efficacy in rat collagen induced arthritis. Details: species or system female Lewis strain of rats. The conditions noted are these: collagen Day 1 and 7, dosed Day 11 to Day 17. How it is done:
Rat collagen-induced arthritis is an experimental model of polyarthritis that has been widely used for preclinical testing of numerous anti-arthritic agents. Following administration of collagen, this model establishes a measurable polyarticular inflammation, marked cartilage destruction in association with pannus formation and mild to moderate bone resorption and periosteal bone proliferation. In this model, collagen was administered to female Lewis strain of rats on Day 1 and 7 of study and dosed with compounds from Day 11 to Day 17. Compounds were evaluated to assess the potential to inhibit the inflammation (including paw swelling), cartilage destruction and bone resorption in arthritic rats, using a model in which the treatment is administered after the disease has been established.

The next data set deals with IL-6. The experiment in a line: In vivo efficacy in mouse endotoxemia model (IL-6). The settings on record: C57/B16 mice; orally at 75 mg/kg; 4 hour challenge with LPS 0.5 mg/kg intraperitoneally. As to the method:
Sub lethal doses of Endotoxin (E. coli bacterial lipopolysaccharide) were administered to animals to produce a generalized inflammatory response which was monitored by increases in secreted cytokines. Compounds were administered to C57/B16 mice orally at 75 mg/kg dose to evaluate inhibition in IL-6 and IL-17 cytokines post 4 hour challenge with Lipopolysaccharide (LPS) at 0.5 mg/kg dose intraperitoneally.

A value given as a limit tells only on which side of the number the result lay.

For orientation: melting point means the temperature of the solid-liquid transition. As for `COc1cc(OC)c2c(=O)[nH]c(-c3ccc(OC)c(-c4ccc([S+](C)[O-])cc4)n3)nc2c1` (stereo not shown) [Example 50, 5,7-Dimethoxy-2-(5-methoxy-6-(4-(methylsulfinyl)phenyl)pyridin-2-yl)quinazolin-4(3H)-one], the melting point is 266 to 267 °C. Further, on Brd4 bromodomain 1, the “FRET activity (IC50 < 30 μM)” value is recorded as “Active”. Moreover, in the data set on c-myc, the “c-myc activity (IC50 < 30 μM)” value is “Active”. In addition, the “cell proliferation activity (IC50 < 30 μM)” value (from here on “cell proliferation activity”) in the data set with Human AML MV-4-11 cells was “Active”. For the same compound, in the data set on hIL-6 mRNA, the “IL-6 activity (IC50 < 30 μM)” value is recorded as “Active”. Also, the “ApoA-1 Activity (EC170 < 30 μM)” value in the data set with hApoA-1 mRNA is listed as “Active”. Further, in the data set on arthritic rats, the “In vivo Activity” value is recorded as “Active”.
Turning to `COc1cc(OC)c2c(=O)[nH]c(-c3ccc(OCCNC(C)C)c(-c4ccc(S(C)(=O)=O)cc4)n3)nc2c1` [Example 27, 2-(5-(2-(Isopropylamino)ethoxy)-6-(4-(methylsulfonyl)phenyl)pyridin-2-yl)-5,7-dimethoxyquinazolin-4(3H)-one], on Brd4 bromodomain 1, the “FRET activity (IC50 < 30 μM)” value is on record as “Active”. Further, the “c-myc activity (IC50 < 30 μM)” value with c-myc is given as “Active”. Further, in the data set with Human AML MV-4-11 cells, the “cell proliferation activity” value is “Active”. Also, the “IL-6 activity (IC50 < 30 μM)” value with hIL-6 mRNA is “Active”. For the same compound, in the data set on hApoA-1 mRNA, the “ApoA-1 Activity (EC170 < 30 μM)” value was “Active”. For the same compound, the “In vivo Activity (IL-6)” value in the data set with IL-6 was “Active”.
As for `COc1cc(OC)c2c(=O)[nH]c(-c3ccc(OCCN4CCCC4)c(-c4ccc([S+](C)[O-])cc4)n3)nc2c1` (stereo not shown) [Example 55, 5,7-Dimethoxy-2-(6-(4-(methylsulfinyl)phenyl)-5-(2-(pyrrolidin-1-yl)ethoxy)pyridin-2-yl)quinazolin-4(3H)-one], the melting point lay within 103 to 105 °C. In addition, the “FRET activity (IC50 < 30 μM)” value on Brd4 bromodomain 1 is reported as “Active”. Also, the “c-myc activity (IC50 < 30 μM)” value with c-myc is “Not Active”. The “cell proliferation activity” value with Human AML MV-4-11 cells is given as “Active”. Besides, the “IL-6 activity (IC50 < 30 μM)” value in the data set on hIL-6 mRNA was “Active”. In addition, the “ApoA-1 Activity (EC170 < 30 μM)” value in the data set with hApoA-1 mRNA is “Active”.
Regarding `COc1cc(OC)c2c(=O)[nH]c(-c3ccc(OCCO)c(-c4ccc(S(C)(=O)=O)cc4)n3)nc2c1` [Example 24, 2-(5-(2-Hydroxyethoxy)-6-(4-(methylsulfonyl)phenyl)pyridin-2-yl)-5,7-dimethoxyquinazolin-4(3H)-one], the melting point was greater than 300 °C. Also, the “FRET activity (IC50 < 30 μM)” value on Brd4 bromodomain 1 is reported as “Active”. Moreover, the “c-myc activity (IC50 < 30 μM)” value in the data set on c-myc is on record as “Not Active”. Also, the “cell proliferation activity” value in the data set with Human AML MV-4-11 cells is “Not Active”. Further, in the data set on hIL-6 mRNA, the “IL-6 activity (IC50 < 30 μM)” value was “Active”. The “ApoA-1 Activity (EC170 < 30 μM)” value in the data set on hApoA-1 mRNA was “Active”.
